Assay: loss of linezolid in IV aqueous solution during and following terminal moist heat sterilization in the container
Assay type: physicochemical
Details: container-solution contact surface made of at least 50% polyolefin
Method: The linezolid IV solution is formulated by heating water for injection from about 50 to about 65°. Next the sodium citrate, citric acid and dextrose are added and stirred until dissolved. An aqueous slurry of linezolid is added to the previous mixture and stirred until dissolved. The mixture is cooled to 25° with stirring. The pH is measured and adjusted if necessary. Last the mixture is brought to volume, if necessary, with water for injection. The mixture is filtered, filled into infusion containers, over wrapped and terminally moist heat sterilized.
When terminally moist heat sterilizing an IV solution, the solution is placed in the container in which (1) it will be stored and then transferred to the container from which it will ultimately be administered, or (2) stored and then ultimately administered from the same container to deliver the IV solution to the patient. Therefore, it is imperative that the pharmaceutically active ingredient (oxazolidinone, linezolid) not react with the container in which it is to be terminally moist heat sterilized and stored/stored-administered.
What is essential is that the container-solution contact surface material be primarily a polyolefin; the remainder of the container can be made from polyolefin or other materials. It is preferred that the container-solution contact surface is made of from about 50 to about 100% polyolefin. […]

CC(=O)NC[C@H]1CN(c2ccc(N3CCOCC3)c(F)c2)C(=O)O1 [linezolid, (S)-N-[[3-[3-fluoro-4-(4-morpholinyl)phenyl]-2-oxo-5-oxazolidinyl]methyl]acetamide]
loss of linezolid during and following terminal moist heat sterilization: significantly much less loss

Reference: US20050075619A1, “Container for linezolid intravenous solution” (priority 2000, published 2005)
